From patent US12528800B2, “Pesticidal compounds” (BASF SE, priority 2018, dated 2026) come the findings set out here.

Broadly, the mortality is the share of the test organisms that died.

Holding throughout (format): in vivo
In experiment [1] the test system is yellow fever mosquito (Aedes aegypti). Briefly: whole plant or invertebrate. Conditions: 48 h, larval mortality visually assessed after 2 days, read-out: mortality in comparison with untreated controls. The protocol: For evaluating control of yellow fever mosquito (Aedes aegypti) the test unit consisted of 96-well-microtiter plates containing 200 μl of tap water per well and 5-15 freshly hatched A. aegypti larvae.
The active compounds or mixtures were formulated using a solution containing 75% (v/v) water and 25% (v/v) DMSO. Different concentrations of formulated compounds or mixtures were sprayed onto the insect diet at 2.5 μl using a custom built micro atomizer, at two replications.
For experimental mixtures in these tests identical volumes of both mixing partners at the desired concentrations respectively, were mixed together.
After application, microtiter plates were incubated at 28+1° C., 80+5% RH for 2 days. Larval mortality was then visually assessed.

Experiment [2] has as its system Orchid thrips (Dichromothrips corbetti). The experiment in a line: Action on orchid thrips (Dichromothrips corbetti), floral-immersion technique. Conditions: adult thrips, 72 hours after treatment, read-out: mortality in comparison with untreated controls. Here is the method:
Dichromothrips corbetti adults used for bioassay were obtained from a colony maintained continuously under laboratory conditions. For testing purposes, the test compound is diluted in a 1:1 mixture of acetone:water (vol:vol), plus Kinetic® HV at a rate of 0.01% v/v.
Thrips potency of each compound was evaluated by using a floral-immersion technique. All petals of individual, intact orchid flowers were dipped into treatment solution and allowed to dry in Petri dishes. Treated petals were placed into individual re-sealable plastic along with about 20 adult thrips. All test arenas were held under continuous light and a temperature of about 28° C. for duration of the assay. After 3 days, the numbers of live thrips were counted on each petal. The percent mortality was recorded 72 hours after treatment.

For experiment [3], the system named is boll weevil (Anthonomus grandis). Briefly: Action on boll weevil (Anthonomus grandis), microtiter plate diet test. Particulars: 120 h, egg and larval mortality after 5 days, read-out: mortality in comparison with untreated controls. Here is the method: For evaluating control of boll weevil (Anthonomus grandis) the test unit consisted of 96-well-microtiter plates containing an insect diet and 5-10 A. grandis eggs.
The compounds were formulated using a solution containing 75% (v/v) water and 25% (v/v) DMSO. Different concentrations of formulated compounds were sprayed onto the insect diet at 5 μl, using a custom built micro atomizer, at two replications.
After application, microtiter plates were incubated at about 25+1° C. and about 75+5% relative humidity for 5 days. Egg and larval mortality was then visually assessed.

The test system of experiment [4] is tobacco budworm (Heliothis virescens). The experiment in a line: Action on tobacco budworm (Heliothis virescens), microtiter plate diet test. Conditions: 120 h, egg and larval mortality after 5 days, read-out: mortality in comparison with untreated controls. Here is the method: For evaluating control of tobacco budworm (Heliothis virescens) the test unit consisted of 96-well-microtiter plates containing an insect diet and 15-25 H. virescens eggs.
The compounds were formulated using a solution containing 75% v/v water and 25% v/v DMSO. Different concentrations of formulated compounds were sprayed onto the insect diet at 10 μl, using a custom-built micro atomizer, at two replications.
After application, microtiter plates were incubated at about 28+1° C. and about 80+5% relative humidity for 5 days. Egg and larval mortality were then visually assessed.

Experiment [5] relates to Diamond back moth (Plutella xylostella). The experiment in a line: Action on diamond back moth (Plutella xylostella), cabbage leaf dip. Particulars: foliar, 3rd instar larvae on dipped cabbage leaves, 72 hours after treatment, read-out: mortality in comparison with untreated controls. The protocol: The active compound is dissolved at the desired concentration in a mixture of 1:1 (v/v) distilled water: acetone. Surfactant (Kinetic® HV) is added at a rate of 0.01% (v/v). The test solution is prepared at the day of use.
Leaves of cabbage were dipped in test solution and air-dried. Treated leaves were placed in petri dishes lined with moist filter paper and inoculated with ten 3rd instar larvae. Mortality was recorded 72 hours after treatment. Feeding damages were also recorded using a scale of 0-100%.

Experiment [6] concerns Southern armyworm (Spodoptera eridania), 2nd instar larvae. Briefly: Action on southern armyworm (Spodoptera eridania), 2nd instar larvae, sprayed lima bean plants. Conditions: 96 h, 2nd instar larvae on lima bean plants, 4 days after treatment, read-out: mortality in comparison with untreated controls. The protocol: The active compounds were formulated by a Tecan liquid handler in 100% cyclohexanone as a 10,000 ppm solution supplied in tubes. The 10,000 ppm solution was serially diluted in 100% cyclohexanone to make interim solutions. These served as stock solutions for which final dilutions were made by the Tecan in 50% acetone:50% water (v/v) into 10 or 20 ml glass vials. A nonionic surfactant (Kinetic®) was included in the solution at a volume of 0.01% (v/v). The vials were then inserted into an automated electrostatic sprayer equipped with an atomizing nozzle for application to plants/insects.
Lima bean plants (variety Sieve) were grown 2 plants to a pot and selected for treatment at the 1st true leaf stage. Test solutions were sprayed onto the foliage by an automated electrostatic plant sprayer equipped with an atomizing spray nozzle. The plants were dried in the sprayer fume hood and then removed from the sprayer. Each pot was placed into perforated plastic bags with a zip closure. About 10 to 11 armyworm larvae were placed into the bag and the bags zipped closed. Test plants were maintained in a growth room at about 25° C. and about 20-40% relative humidity for 4 days, avoiding direct exposure to fluorescent light (24 hour photoperiod) to prevent trapping of heat inside the bags. Mortality and reduced feeding were assessed 4 days after treatment, compared to untreated control plants.

In the case of `CC(C)c1ccccc1NC(=S)N/N=C/c1ccc(-c2cc(NCc3ccc(OC(F)(F)F)cc3)n(C)n2)cc1` [Compound C-3, 1-(2-isopropylphenyl)-3-[(E)-[4-[1-methyl-5-[[4-(trifluoromethoxy)phenyl]methylamino]pyrazol-3-yl]phenyl]methyleneamino]thiourea], the mortality at 800 ppm in experiment [1] was not below 50%; in experiment [3], not below 75%; in experiment [4] it was not below 75%. The mortality at 500 ppm in experiment [2] and in experiment [5] was not below 75% each time. The mortality at 300 ppm in experiment [6] is not below 75%.

As to `CC(C)c1ccccc1NC(=S)N/N=C/c1ccc(-c2cc(NC(=N)c3ccc(OC(F)(F)F)cc3)n(C)n2)cc1` [Compound C-5, 1-(2-isopropylphenyl)-3-[(E)-[4-[1-methyl-5-[[4-(trifluoromethoxy)benzenecarboximidoyl]amino]pyrazol-3-yl]phenyl]methyleneamino]thiourea], the mortality at 800 ppm was not below 50% in experiment [1], not below 75% in experiment [3] and not below 75% in experiment [4]. Besides, the mortality at 500 ppm in experiment [2] and in experiment [5] was not below 75% throughout. The mortality at 300 ppm in experiment [6] is not below 75%.

Consider `CC(C)c1ccccc1N1C(=O)CS/C1=N\N=C\c1ccc(-c2cc(NC(=N)c3ccc(OC(F)(F)F)cc3)n(C)n2)cc1` [Compound C-6, N-[5-[4-[(E)-[(Z)-[3-(2-isopropylphenyl)-4-oxo-thiazolidin-2-ylidene]hydrazono]methyl]phenyl]-2-methyl-pyrazol-3-yl]-4-(trifluoromethoxy) benzamidine], for which the mortality at 800 ppm in experiment [1] was not below 50%; in experiment [3], not below 75%; in experiment [4], not below 75%. Also, the mortality at 500 ppm in experiment [5] was not below 75%. Moreover, the mortality at 300 ppm in experiment [6] is not below 75%.

`CC(C)c1ccccc1/N=C1\SCC(=O)N1/N=C/c1ccc(-c2cc(OCc3ccc(OC(F)(F)F)cc3)n(C)n2)cc1` [Compound C-12, (2Z)-2-(2-isopropylphenyl)imino-3-[(E)-[4-[1-methyl-5-[[4-(trifluoromethoxy)phenyl]methoxy]pyrazol-3-yl]phenyl]methyleneamino]thiazolidin-4-one]: the mortality at 800 ppm is not below 50% in experiment [1], not below 75% in experiment [3] and not below 75% in experiment [4]. For the same molecule, the mortality at 500 ppm in experiment [5] is not below 75%. In experiment [6], the mortality at 300 ppm is not below 75%.

On to `Cc1c(-c2ccc(/C=N/NC(=S)Nc3ccccc3C(C)C)cc2)nn(C)c1NC(=O)c1ccc(C(F)(F)F)cc1` [Compound C-15, N-[5-[4-[(E)-[(2-isopropylphenyl)carbamothioylhydrazono]methyl]phenyl]-2,4-dimethyl-pyrazol-3-yl]-4-(trifluoromethyl)benzamide], for which the mortality at 500 ppm in experiment [2] and in experiment [5] was not below 75% in each case. The mortality at 800 ppm in experiment [3] and in experiment [4] was not below 75% in each case. Moreover, the mortality at 300 ppm in experiment [6] is not below 75%.

Consider `CCn1nc(-c2ccc(/C=N/O[C@@H]3O[C@@H](C)[C@H](OC)[C@@H](OC)[C@H]3OC)cc2)cc1NC(=O)c1ccc(OC(F)(F)F)cc1` [Compound C-32, N-[2-ethyl-5-[4-[(E)-[(2S,3R,4R,5S,6S)-3,4,5-trimethoxy-6-methyl-tetrahydropyran-2-yl]oxyiminomethyl]phenyl]pyrazol-3-yl]-4-(trifluoromethoxy)benzamide], for which the mortality at 800 ppm in experiment [1] is not below 50%; in experiment [3], not below 75%; in experiment [4] it was not below 75%. In addition, the mortality at 500 ppm in experiment [5] was not below 75%. Besides, the mortality at 300 ppm in experiment [6] is not below 75%.

For `CCn1nc(-c2ccc(NC(=O)O[C@@H]3O[C@@H](C)[C@H](OC)[C@@H](OC)[C@H]3OC)cc2)cc1NC(=O)c1ccc(OC(F)(F)F)cc1` [Compound C-33, [(2S,3R,4R,5S,6S)-3,4,5-trimethoxy-6-methyl-tetrahydropyran-2-yl] N-[4-[1-ethyl-5-[[4-(trifluoromethoxy)benzoyl]amino]pyrazol-3-yl]phenyl]carbamate], the figures for the mortality at 800 ppm in experiment [1], in experiment [3] and in experiment [4] were not below 50%, not below 75% and not below 75%, respectively. Also, the mortality at 500 ppm in experiment [5] was not below 75%.

Consider `CCn1nc(-c2ccc(NC(=O)O[C@@H]3O[C@@H](C)[C@H](OC)[C@@H](OC)[C@H]3OC)cc2)cc1NCc1ccc(OC(F)(F)F)cc1` [Compound C-40, [(2S,3R,4R,5S,6S)-3,4,5-trimethoxy-6-methyl-tetrahydropyran-2-yl] N-[4-[1-ethyl-5-[[4-(trifluoromethoxy)phenyl]methylamino]pyrazol-3-yl]phenyl]carbamate], for which the mortality at 800 ppm in experiment [1] was not below 50%; in experiment [3], not below 75%; in experiment [4], not below 75%. In experiment [5], the mortality at 500 ppm was not below 75%.

As to `CC(C)c1ccccc1N1C(=O)CS/C1=N\N=C\c1ccc(-c2cc(C(=O)Nc3ccc(OC(F)(F)F)cc3)n(C)n2)cc1` [Compound C-47, 5-[4-[(E)-[(Z)-[3-(2-isopropylphenyl)-4-oxo-thiazolidin-2-ylidene]hydrazono]methyl]phenyl]-2-methyl-N-[4-(trifluoromethoxy)phenyl]pyrazole-3-carboxamide], the mortality at 800 ppm was not below 50% in experiment [1] and not below 75% in experiment [4]. The mortality at 500 ppm in experiment [5] is not below 75%. Also, the mortality at 300 ppm in experiment [6] is not below 75%.

As to `CC(C)c1ccccc1NC(=S)N/N=C/c1ccc(-c2cc(NC(=O)c3ccc(OC(F)(F)F)cc3)[nH]n2)cc1` [Compound C-57, N-[3-[4-[(E)-[(2-isopropylphenyl)carbamothioylhydrazono]methyl]phenyl]-1H-pyrazol-5-yl]-4-(trifluoromethoxy)benzamide], the mortality at 800 ppm in experiment [1] was not below 50%; in experiment [3], not below 75%; in experiment [4], not below 75%. The mortality at 500 ppm in experiment [2] and in experiment [5] was not below 75% in each case.

For `CC(C)c1ccccc1N1C(=O)CS/C1=N\N=C\c1ccc(-c2cc(NC(=O)c3ccc(OC(F)(F)F)cc3)[nH]n2)cc1` [Compound C-58, N-[3-[4-[(E)-[(Z)-[3-(2-isopropylphenyl)-4-oxo-thiazolidin-2-ylidene]hydrazono]methyl]phenyl]-1H-pyrazol-5-yl]-4-(trifluoromethoxy)benzamide], the mortality at 800 ppm was not below 50% in experiment [1], not below 75% in experiment [3] and not below 75% in experiment [4]. Also, the mortality at 500 ppm in experiment [2] and in experiment [5] was not below 75% in each case.

With `CC(C)c1ccccc1NC(=S)N/N=C/c1ccc(-c2nc(NC(=O)c3ccc(OC(F)(F)F)cc3)n(C)n2)cc1` [Compound C-63, N-[5-[4-[(E)-[(2-isopropylphenyl)carbamothioylhydrazono]methyl]phenyl]-2-methyl-1,2,4-triazol-3-yl]-4-(trifluoromethoxy)benzamide], the mortality at 500 ppm in experiment [2] and in experiment [5] was not below 75% throughout. In addition, the mortality at 800 ppm in experiment [3] and in experiment [4] was not below 75% each time.
